Experimental findings from EP0019589A1, “Tripeptide derivatives and their use in a process for determining enzymes” (Pentapharm A.G., priority 1979, dated 1980) are described below.

Common to all, as to assay type: biochemical
The target in test [1] is T1, Submandibularis-Kallikrein (Homo sapiens, UniProt P06870).
T1 construct: Man mischt 0,5 ml Sputum mit 2 ml TRIS-Imidazol-Puffer; from tissue; host or cells: human sputum
Briefly: Cleavage of chromogenic substrate by submandibular (glandular) kallikrein in human sputum. The conditions noted are these: 1 ml human sputum, per min; Substratkonzentration 2 x 10^-4 molar. The method, then:
2. Bestimmung des Glandulärkallikreins im Sputum: • Man mischt 0,5 ml Sputum mit 2 ml TRIS-Imidazol-Puffer (Ionenstärke 1,0) und präinkubiert die Mischung 5 Min. bei 37°C. Das Inkubat wird zentrifugiert. In eine Testküvette wird 1,5 ml dest. H2O von 37°C vorgelegt und mit 0,25 ml des Zentrifugats versetzt. Die Komponenten werden gut gemischt. Dann wird 0,2 ml 2 x 10-^3 molare wässrige Substratlösung zugesetzt und gemischt. Dann wird bei 405 nm die Extinktions- änderung kontinuierlich mittels eines Schreibers während 5-10 Min. verfolgt. Aus dem ermittelten Δ OD pro Min. wird mittels der nachstehenden Formel die Kallikreinaktivität pro ml Sputum in mU errechnet: [formula] • F = 5 • V = 1,95 • v = 0,25 • 1 U (Einheit) = Enzymmenge, die während 1 Min. 1 µMol Substrat unter optimalen oder sonst festgelegten Bedingungen in Bezug auf pH, Ionenstärke, Temperatur und Substratkonzentration zu spalten vermag
Bei der Messung des durch die enzymatische Hydrolyse des Substrates gebildeten Spaltproduktes RrNH2 geht man von der Voraussetzung aus, dass das Spaltprodukt ein UV-Spektrum besitzt, das von demjenigen des Substrates verschieden und in Richtung höherer Wellenlängen verschoben ist. Die Absorption des Substrates bei 405 nm ist praktisch Null. p-Nitroanilin als Spaltprodukt weist ein Absorptionsmaximum bei 380 nm und einen molaren Extinktionskoeffizienten von 13'200 auf. Bei 405 nm ist der Extinktionskoeffizient nur wenig niedriger, d.h. […] Der Grad der enzymatischen Hydrolyse des Substrates, welcher der Menge des abgespaltenen p-Nitroanilins proportional ist, lässt sich durch spektrophotometrische Messung bei 405 nm bestimmen. Auch bei Anwesenheit eines Ueberschusses an Substrat wird die Messung bei 405 nm nicht gestört. […]

For another test, the target named is T2, Urinkallikrein (Homo sapiens, UniProt P06870).
T2 construct: 1 ml Urin und 1 ml TRIS-Imidazol-Puffer mit pH 7,9; from tissue; host or cells: human urine
Put plainly: Cleavage of chromogenic substrate by urinary kallikrein in human urine. As to conditions: 1 ml human urine (pooled morning urine of healthy persons), per min; Substratkonzentration 2 x 10^-4 molar. The method, then: 1. Bestimmung von Urinkallikrein.
1 ml Urin und 1 ml TRIS-Imidazol-Puffer mit pH 7,9 und Ionenstärke 1,0 werden 5 Min. bei 37°C inkubiert undcänn zentrifugiert, um Sedimente zu entfernen.
In einer-Plastikküvette werden 1,4 ml dest. H20 von 37°C und 0,4 ml des Zentrifugats gut gemischt. Zu dieser Mischung gibt man 0,2 ml einer 2 x 10^-3 molaren wässrigen Substratlösung und durchmischt die Komponenten schnell. Dieses Gemisch wird genau 15 Min. bei 37°C inkubiert. Dann wird dem Reaktionsgemisch 0,2 ml Eisessig zugemischt, um die Enzymreaktion zu unterbrechen. Zur Farbmessung verwendet man eine Vergleichsprobe (Blindprobe), die aus den gleichen Komponenten zusammengesetzt ist, wobei jedoch der Eisessig vor Zugabe des Substrates zugesetzt wird, um die Enzymreaktion zu verhindern. Dann wird bei 405 nm photometrisch oder spektrophotometrisch die Menge der gebildeten farbigen Verbindung RNH 2 aus der Differenz zwischen der Blindprobe und der zu bestimmenden Probe ermittelt. Aus dem ermittelten Wert wird die Urinkallikreinaktivität im Urin nach der folgenden Formel berechnet: [formula] • Δ OD = Zunahme der optischen Dichte bei 405 nm während 15 Min. • V = Totalvolumen des Bestimmungsansatzes = 2,2 ml • 1000 = Umrechnungsfaktor zur Umwandlung von U in mU • F = Verdünnungsfaktor des Urins (2) • v = Volumen der Probe = 0,4 ml • ε = Extinktionskoeffizient dividiert durch 1000 = 10,4
Bei der oben beschriebenen Bestimmungsmethode misst man somit die Summe der Aktivitäten von Urinkallikrein und Urokinase. Um die genaue Urinkallikreinaktivität zu erhalten, muss man die Urokinaseaktivität abziehen, welche dadurch bestimmt werden kann, dass man in einem Vergleichsversuch durch Zugabe von 0,075 Einheiten Trypsininhibitor (Trypsininhibitor aus Rinderlunge) pro ml Puffer die Urinkallikreinaktivität vollständig hemmt und nur die Urokinaseaktivität misst.
(§1) Bei der Messung des durch die enzymatische Hydrolyse des Substrates gebildeten Spaltproduktes RrNH2 geht man von der Voraussetzung aus, dass das Spaltprodukt ein UV-Spektrum besitzt, das von demjenigen des Substrates verschieden und in Richtung höherer Wellenlängen verschoben ist. Die Absorption des Substrates bei 405 nm ist praktisch Null. p-Nitroanilin als Spaltprodukt weist ein Absorptionsmaximum bei 380 nm und einen molaren Extinktionskoeffizienten von 13'200 auf. Bei 405 nm ist der Extinktionskoeffizient nur wenig niedriger, d.h. […] Der Grad der enzymatischen Hydrolyse des Substrates, welcher der Menge des abgespaltenen p-Nitroanilins proportional ist, lässt sich durch spektrophotometrische Messung bei 405 nm bestimmen. Auch bei Anwesenheit eines Ueberschusses an Substrat wird die Messung bei 405 nm nicht gestört.
(§2) Bei den Substraten, die als chromogene Gruppe eine 2-Naphthylamino-, 4-Methoxy-2-naphthylamino-, 4-Methyl-cumaryl-(7)-amino- oder 1,3-Di(methoxycarbonyl)-phenyl-(5)-amino-Gruppe enthalten, wird die Menge des Spaltproduktes R-NH2 durch Fluoreszenzspektrophotometrie gemessen. In einem aus Enzym, Puffer und Substrat bestehenden Testsystem misst man kontinuierlich das energieärmere emittierte Licht bei 400-470 nm, nachdem man das gebildete fluoreszierende Spaltprodukt mit energiereicherem Licht erregt hat. Die pro Zeiteinheit gebildete Menge Spaltprodukt ist ein Mass für die vorhandene Enzymaktivität. 1 µMol Spaltprodukt pro Minute entspricht definitionsgemäss 1 Enzym-Einheit, bezogen auf ein gegebenes Substrat.

The target of another test is T3, Humanplasmin (Homo sapiens, UniProt P00747).
T3 construct: da bei der Aktivierung aus 1 Molekül Plasminogen 1 Molekül Plasmin entsteht
Put plainly: Cleavage of chromogenic substrate by human plasmin. The conditions noted are these: 1 CU-Einheit human plasmin, per min; Substratkonzentration 2 x 10^-4 molar. Here is the method: 3. Bestimmung von Plasmin:
Man mischt 1,7 ml TRIS-Imidazol-Puffer (pH 7,5, Ionenstärke 0,2) bei 37°C mit 0,1 ml einer Lösung von Plasmin in 25%igem Glycerin und inkubiert die Mischung während 1 Min. bei 37°C. Dann gibt man der Mischung 0,2 ml einer wässrigen 2 x 10^-3 molaren Substxatlösung von 37°C zu und durchmischt das Ganze schnell. Man ermittelt dann kontinuierlich die pro Zeiteinheit aus dem Substrat freigesetzte Menge des Spaltproduktes R-NH2. Aus dem pro Min. ermittelten Wert berechnet man dann die Plasminaktivität pro ml Probe in mU nach der folgenden Formel: [formula] • ΔE = pro Min. freigesetzte Menge des Spaltproduktes • V = Totalvolumen des Testansatzes • v = Volumen der Probe • = Extinktionskoeffizient dividiert durch 1000
as §1, §2

Molecules are shown by their SMILES. Non-standard residues stand in square brackets, D forms with d. Residues, ends and D or L forms follow the SMILES beside them. *: point of attachment. Cha = N[C@@H](CC1CCCCC1)C(=O)O; dChg = N[C@@H](C(=O)O)C1CCCCC1; pNA = O=[N+]([O-])c1ccc(N*)cc1; AMC = Cc1cc(=O)oc2cc(N*)ccc12; βNA = c1ccc2cc(N*)ccc2c1

T1 sequence (P06870 25-262): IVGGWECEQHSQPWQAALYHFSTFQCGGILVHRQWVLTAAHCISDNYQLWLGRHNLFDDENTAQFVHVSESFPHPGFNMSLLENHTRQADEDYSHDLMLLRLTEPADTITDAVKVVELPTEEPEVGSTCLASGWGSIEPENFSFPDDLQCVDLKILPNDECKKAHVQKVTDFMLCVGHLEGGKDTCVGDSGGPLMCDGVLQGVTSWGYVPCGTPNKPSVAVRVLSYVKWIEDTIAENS
T2 sequence (P06870 25-262): as above
T3 sequence (P00747 581-810 limits assumed): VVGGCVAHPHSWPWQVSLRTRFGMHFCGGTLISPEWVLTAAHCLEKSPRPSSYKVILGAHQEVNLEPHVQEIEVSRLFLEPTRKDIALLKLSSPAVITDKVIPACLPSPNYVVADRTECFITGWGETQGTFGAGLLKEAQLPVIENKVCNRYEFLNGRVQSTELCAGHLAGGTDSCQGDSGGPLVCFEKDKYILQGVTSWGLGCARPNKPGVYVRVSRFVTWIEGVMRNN
T3 sequence (P00747 97-580 partner limits assumed): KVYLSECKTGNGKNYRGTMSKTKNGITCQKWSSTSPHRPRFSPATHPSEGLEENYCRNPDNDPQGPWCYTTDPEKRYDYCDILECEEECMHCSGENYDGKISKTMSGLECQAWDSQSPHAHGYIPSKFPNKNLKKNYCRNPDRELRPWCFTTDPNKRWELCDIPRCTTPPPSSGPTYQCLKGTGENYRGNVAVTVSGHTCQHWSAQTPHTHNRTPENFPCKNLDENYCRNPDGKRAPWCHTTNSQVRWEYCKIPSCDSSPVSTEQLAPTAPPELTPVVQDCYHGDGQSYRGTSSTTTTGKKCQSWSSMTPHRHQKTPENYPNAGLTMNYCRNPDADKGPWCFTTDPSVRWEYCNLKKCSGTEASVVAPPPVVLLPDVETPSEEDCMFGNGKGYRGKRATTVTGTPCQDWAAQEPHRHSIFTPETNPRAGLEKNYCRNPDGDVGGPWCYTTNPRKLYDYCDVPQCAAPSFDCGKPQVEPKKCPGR

On to `CC(C)C[C@H](NC(=O)[C@H](N)C(C)C)C(=O)N[C@@H](CCCNC(=N)N)C(=O)Nc1ccc([N+](=O)[O-])cc1` [A, 2HCl.H-D-Val-Leu-Arg-pNA, reference compound] (H-[dV]-Leu-Arg-pNA), for which, in test [1], the “Menge des durch 1 ml Humansputum pro Min. freigesetzten Spaltproduktes R-NH2 in Nanomol (Submandibularis-Kallikrein)” value is given as 12,2 Nanomol. Moreover, at Urinkallikrein, the “Menge des durch 1 ml Humanurin pro Min. freigesetzten Spaltproduktes R-NH2 in Nanomol (Urinkallikrein)” value is reported as 0,90 Nanomol. Besides, the “Menge des durch 1 CU-Einheit Humanplasmin pro Min. freigesetzten Spaltproduktes R-NH2 in Nanomol (Humanplasmin)” value on Humanplasmin was 83 Nanomol.
In the case of `CC(C)C[C@H](NC(=O)[C@H](N)C(C)C)C(=O)N[C@@H](CCCCN)C(=O)Nc1ccc([N+](=O)[O-])cc1` [B, 2HCl.H-D-Val-Leu-Lys-pNA, reference compound] (H-[dV]-Leu-Lys-pNA), the “Menge des durch 1 ml Humansputum pro Min. freigesetzten Spaltproduktes R-NH2 in Nanomol (Submandibularis-Kallikrein)” value in test [1] is 5,7 Nanomol. The “Menge des durch 1 ml Humanurin pro Min. freigesetzten Spaltproduktes R-NH2 in Nanomol (Urinkallikrein)” value on Urinkallikrein is on record as 0,30 Nanomol. Further, the “Menge des durch 1 CU-Einheit Humanplasmin pro Min. freigesetzten Spaltproduktes R-NH2 in Nanomol (Humanplasmin)” value at Humanplasmin turned out to be 347 Nanomol.
As for `NCCCC[C@H](NC(=O)[C@H](Cc1ccccc1)NC(=O)[C@H](N)C1CCCCC1)C(=O)Nc1ccc([N+](=O)[O-])cc1` [Beispiel 2, 2HBr.H-D-CHG-Phe-Lys-pNA] (H-[dChg]-Phe-Lys-pNA), in test [1], the “Menge des durch 1 ml Humansputum pro Min. freigesetzten Spaltproduktes R-NH2 in Nanomol (Submandibularis-Kallikrein)” value is 25,6 Nanomol. For the same molecule, the “Menge des durch 1 ml Humanurin pro Min. freigesetzten Spaltproduktes R-NH2 in Nanomol (Urinkallikrein)” value at Urinkallikrein is reported as 0,80 Nanomol. Besides, at Humanplasmin, the “Menge des durch 1 CU-Einheit Humanplasmin pro Min. freigesetzten Spaltproduktes R-NH2 in Nanomol (Humanplasmin)” value came out at 1150 Nanomol.
In the case of `Cc1cc(=O)oc2cc(NC(=O)[C@H](CCCNC(=N)N)NC(=O)[C@H](CC3CCCCC3)NC(=O)[C@H](N)C(C)C)ccc12` [Beispiel 3, 2HBr.H-D-Val-CHA-Arg-MCA] (H-[dV]-[Cha]-Arg-{AMC}), in test [1], the “Menge des durch 1 ml Humansputum pro Min. freigesetzten Spaltproduktes R-NH2 in Nanomol (Submandibularis-Kallikrein)” value is listed as 31,2 Nanomol. On Urinkallikrein, the “Menge des durch 1 ml Humanurin pro Min. freigesetzten Spaltproduktes R-NH2 in Nanomol (Urinkallikrein)” value is given as 2,55 Nanomol. Moreover, the “Menge des durch 1 CU-Einheit Humanplasmin pro Min. freigesetzten Spaltproduktes R-NH2 in Nanomol (Humanplasmin)” value at Humanplasmin was 430 Nanomol.
`Cc1cc(=O)oc2cc(NC(=O)[C@H](CCCCN)NC(=O)[C@H](Cc3ccccc3)NC(=O)[C@H](N)C3CCCCC3)ccc12` [Beispiel 4, 2HBr.H-D-CHG-Phe-Lys-MCA] (H-[dChg]-Phe-Lys-{AMC}): the “Menge des durch 1 ml Humansputum pro Min. freigesetzten Spaltproduktes R-NH2 in Nanomol (Submandibularis-Kallikrein)” value in test [1] was 15,7 Nanomol. Moreover, the “Menge des durch 1 ml Humanurin pro Min. freigesetzten Spaltproduktes R-NH2 in Nanomol (Urinkallikrein)” value at Urinkallikrein was 0,60 Nanomol. Further, the “Menge des durch 1 CU-Einheit Humanplasmin pro Min. freigesetzten Spaltproduktes R-NH2 in Nanomol (Humanplasmin)” value at Humanplasmin was found to be 1120 Nanomol.
In the case of `COC(=O)c1cc(NC(=O)[C@H](CCCNC(=N)N)NC(=O)[C@H](CC2CCCCC2)NC(=O)[C@H](N)C(C)C)cc(C(=O)OC)c1` [Beispiel 5, 2HBr.H-D-Val-CHA-Arg-DPA], the “Menge des durch 1 ml Humansputum pro Min. freigesetzten Spaltproduktes R-NH2 in Nanomol (Submandibularis-Kallikrein)” value in test [1] is given as 28,5 Nanomol. For the same molecule, at Urinkallikrein, the “Menge des durch 1 ml Humanurin pro Min. freigesetzten Spaltproduktes R-NH2 in Nanomol (Urinkallikrein)” value was 2,42 Nanomol. On Humanplasmin, the “Menge des durch 1 CU-Einheit Humanplasmin pro Min. freigesetzten Spaltproduktes R-NH2 in Nanomol (Humanplasmin)” value is on record as 408 Nanomol.
The corresponding values for `COC(=O)c1cc(NC(=O)[C@H](CCCCN)NC(=O)[C@H](Cc2ccccc2)NC(=O)[C@H](N)C2CCCCC2)cc(C(=O)OC)c1` [Beispiel 6, 2HBr.H-D-CHG-Phe-Lys-DPA] are 24,8 Nanomol, 0,72 Nanomol and 1215 Nanomol.
The matching figures for `CC(C)[C@@H](N)C(=O)N[C@@H](CC1CCCCC1)C(=O)N[C@@H](CCCNC(=N)N)C(=O)Nc1ccc2ccccc2c1` [Beispiel 7, 2HBr.H-D-Val-CHA-Arg-2-NA] (H-[dV]-[Cha]-Arg-βNA): 31,1 Nanomol, 2,55 Nanomol and 428 Nanomol.
